Assay results published in publication PMC8854621, “Functionally selective signaling and broad metabolic benefits by novel insulin receptor partial agonists” (Nature Communications, 2022).
Where two headings read alike, the source gives them in different places.

Key:
[1] = system: diabetic Yucatan minipigs; test: Glucose lowering after s.c. bolus in type 1 diabetic Yucatan minipigs (PD); type: in vivo, minipig; conditions: individual animal
Experimental: Data is presented as mean ± SEM, n = 6 animals per dose group. […] Source data are provided as a Source Data file.
IRPAs were characterized in a Type 1 diabetic Yucatan minipig model. Briefly, male Yucatan minipigs, from Sinclair, were rendered Type 1 diabetic by Alloxan injections following a proprietary protocol developed by Sinclair Research Center (Auxvasse, MO). […] Minipigs used in these studies ranged from 10 months to 3 years old, had plasma glucose levels of approximately 300–400 mg/dL and were instrumented with two Jugular vein vascular access ports (VAP).
IRPAs were administered to diabetic minipigs by subcutaneous injection. […] After dosing, sampling continued for 18 h.

SAOS2/B10 cells = test: Cellular proliferation, EdU incorporation (Click-it EdU); type: cell-based
Source text: 3. […]
Ethynyl-2′-deoxyuridine; ThermoFisher Scientific) assay. […]

Tresiba: insulin Degludec from Novo Nordisk, a lipidated insulin
ΔGlucose ([1]; 2 h post s.c. dose, replicate 1): -38 mg/dL
ΔGlucose ([1]; 2 h post s.c. dose, replicate 2): -21 mg/dL
ΔGlucose ([1]; 2 h post s.c. dose, replicate 3): 5 mg/dL
ΔGlucose ([1]; 2 h post s.c. dose, replicate 4): 79 mg/dL
ΔGlucose ([1]; 2 h post s.c. dose, replicate 5): 69 mg/dL
ΔGlucose ([1]; 2 h post s.c. dose, replicate 6): -28 mg/dL
ΔGlucose ([1]; 2 h post s.c. dose, replicate 7): 35 mg/dL
ΔGlucose ([1]; 2 h post s.c. dose, replicate 8): -20 mg/dL
ΔGlucose ([1]; 2 h post s.c. dose, replicate 9): 40 mg/dL
ΔGlucose ([1]; 2 h post s.c. dose, replicate 10): 8 mg/dL
ΔGlucose ([1]; 2 h post s.c. dose, replicate 11): -118 mg/dL
ΔGlucose ([1]; 2 h post s.c. dose, replicate 12): 93 mg/dL
ΔGlucose ([1]; 2 h post s.c. dose, replicate 13): -13 mg/dL
ΔGlucose ([1]; 2 h post s.c. dose, replicate 14): 18 mg/dL
ΔGlucose ([1]; 2 h post s.c. dose, replicate 15): -36 mg/dL
ΔGlucose ([1]; 2 h post s.c. dose, replicate 16): 58 mg/dL
ΔGlucose ([1]; 2 h post s.c. dose, replicate 17): -126 mg/dL
ΔGlucose ([1]; 2 h post s.c. dose, replicate 18): -12 mg/dL
ΔGlucose ([1]; 2 h post s.c. dose, replicate 19): -60 mg/dL
ΔGlucose ([1]; 3 h post s.c. dose, replicate 1): -67 mg/dL
ΔGlucose ([1]; 3 h post s.c. dose, replicate 2): -79 mg/dL
ΔGlucose ([1]; 3 h post s.c. dose, replicate 3): -1 mg/dL
ΔGlucose ([1]; 3 h post s.c. dose, replicate 4): 32 mg/dL
ΔGlucose ([1]; 3 h post s.c. dose, replicate 5): 97 mg/dL
ΔGlucose ([1]; 3 h post s.c. dose, replicate 6): -58 mg/dL
ΔGlucose ([1]; 3 h post s.c. dose, replicate 7): 20 mg/dL
ΔGlucose ([1]; 3 h post s.c. dose, replicate 8): -73 mg/dL
ΔGlucose ([1]; 3 h post s.c. dose, replicate 9): 97 mg/dL
ΔGlucose ([1]; 3 h post s.c. dose, replicate 10): -61 mg/dL
ΔGlucose ([1]; 3 h post s.c. dose, replicate 11): -233 mg/dL
ΔGlucose ([1]; 3 h post s.c. dose, replicate 12): -9 mg/dL
ΔGlucose ([1]; 3 h post s.c. dose, replicate 13): -76 mg/dL
ΔGlucose ([1]; 3 h post s.c. dose, replicate 14): -2 mg/dL
ΔGlucose ([1]; 3 h post s.c. dose, replicate 15): -89 mg/dL
ΔGlucose ([1]; 3 h post s.c. dose, replicate 16): 57 mg/dL
ΔGlucose ([1]; 3 h post s.c. dose, replicate 17): -188 mg/dL
ΔGlucose ([1]; 3 h post s.c. dose, replicate 18): -49 mg/dL
ΔGlucose ([1]; 3 h post s.c. dose, replicate 19): -86 mg/dL
ΔGlucose ([1]; 4 h post s.c. dose, replicate 1): -114 mg/dL
ΔGlucose ([1]; 4 h post s.c. dose, replicate 2): -145 mg/dL
ΔGlucose ([1]; 4 h post s.c. dose, replicate 3): -76 mg/dL
ΔGlucose ([1]; 4 h post s.c. dose, replicate 4): 21 mg/dL
ΔGlucose ([1]; 4 h post s.c. dose, replicate 5): 89 mg/dL
ΔGlucose ([1]; 4 h post s.c. dose, replicate 6): -90 mg/dL
ΔGlucose ([1]; 4 h post s.c. dose, replicate 7): -30 mg/dL
ΔGlucose ([1]; 4 h post s.c. dose, replicate 8): -110 mg/dL
ΔGlucose ([1]; 4 h post s.c. dose, replicate 9): 88 mg/dL
ΔGlucose ([1]; 4 h post s.c. dose, replicate 10): -83 mg/dL
ΔGlucose ([1]; 4 h post s.c. dose, replicate 11): -283 mg/dL
ΔGlucose ([1]; 4 h post s.c. dose, replicate 12): -105 mg/dL
ΔGlucose ([1]; 4 h post s.c. dose, replicate 13): -142 mg/dL
ΔGlucose ([1]; 4 h post s.c. dose, replicate 14): -49 mg/dL
ΔGlucose ([1]; 4 h post s.c. dose, replicate 15): -147 mg/dL
ΔGlucose ([1]; 4 h post s.c. dose, replicate 16): 24 mg/dL
ΔGlucose ([1]; 4 h post s.c. dose, replicate 17): -217 mg/dL
ΔGlucose ([1]; 4 h post s.c. dose, replicate 19): -118 mg/dL
ΔGlucose ([1]; 5 h post s.c. dose, replicate 1): -180 mg/dL
ΔGlucose ([1]; 5 h post s.c. dose, replicate 2): -224 mg/dL
ΔGlucose ([1]; 5 h post s.c. dose, replicate 3): -181 mg/dL
ΔGlucose ([1]; 5 h post s.c. dose, replicate 4): 9 mg/dL
ΔGlucose ([1]; 5 h post s.c. dose, replicate 5): 29 mg/dL
ΔGlucose ([1]; 5 h post s.c. dose, replicate 6): -129 mg/dL
ΔGlucose ([1]; 5 h post s.c. dose, replicate 7): -47 mg/dL
ΔGlucose ([1]; 5 h post s.c. dose, replicate 8): -151 mg/dL
ΔGlucose ([1]; […] post s.c. dose, replicate 4): 27 mg/dL
ΔGlucose ([1]; […] post s.c. dose, replicate 12): -48 mg/dL

IGF-1: insulin-like growth factor 1
EC50 (SAOS2/B10 cells; geometric mean of all independent titrations, EdU incorporation, four-parameter fit, read-out: Cell Proliferation Assay Total Ave EC50): 0.149 nM
EC50 (SAOS2/B10 cells; titration 2, read-out: Cell Proliferation Assay EC50-2): 0.397 nM
EC50 (SAOS2/B10 cells; titration 3, read-out: Cell Proliferation Assay EC50-3): 0.154 nM
EC50 (SAOS2/B10 cells; titration 4, read-out: Cell Proliferation Assay EC50-4): 0.0819 nM
EC50 (SAOS2/B10 cells; titration 5, read-out: Cell Proliferation Assay EC50-5): 0.103 nM
EC50 (SAOS2/B10 cells; titration 6, read-out: Cell Proliferation Assay EC50-6): 0.0688 nM
EC50 (SAOS2/B10 cells; titration 7, read-out: Cell Proliferation Assay EC50-7): 0.0568 nM
EC50 (SAOS2/B10 cells; titration 8, read-out: Cell Proliferation Assay EC50-8): 0.842 nM
EC50 (SAOS2/B10 cells; titration 9, read-out: Cell Proliferation Assay EC50-9): 0.438 nM
EC50 (SAOS2/B10 cells; titration 10, read-out: Cell Proliferation Assay EC50-10): 0.153 nM
